Tests used:
β2AR-T4L [1] = details: for λmax ± SD for β2AR-T4L: bimane emission, excitation 350 nm, saturating ligand; for λmax ± SD for β2AR-T4L / Intensity at λmax Ligand/Intensity at λmax none, β2AR-T4L: 15 min incubation; for Intensity at λmax Ligand/Intensity at λmax none, β2AR-T4L: bimane fluorescence, ratio to no-ligand control
[2] = molecular target: β2AR Val114^3.33 to alanine mutant (Homo sapiens, UniProt P07550, V114A); details: Chelikani et al. 2007; cited from earlier work
wild-type β2AR = wild-type β2AR (Homo sapiens, UniProt P07550); assay: Saturation binding of [3H]DHA to membranes from Sf9 cells expressing wild-type β2AR
β2AR-T4L [3] = assay: Saturation binding of [3H]DHA to membranes from Sf9 cells expressing β2AR-T4L; parameters: species or system human
Experimental: FIG. 15. Affinity curves for adrenergic ligands binding to β2AR-T4L and wildtype β2AR. […] Binding experiments on membranes isolated from Sf9 insect cells expressing the receptors were performed as described above.
Membrane preparation from baculovirus-infected Sf9 cells was performed as described previously (Swaminath, et al., Mol Pharmacol 61, 65 (2002)). For each binding reaction, membranes containing 0.7 μg total membrane protein were used. Saturation binding of [^3H]-dihydroalprenolol (DHA) was measured by incubating membranes resuspended in 500 μl binding buffer (75 mM Tris, 12.5 mM MgCl2, 1 mM EDTA, pH 7.4, supplemented with 0.4 mg/ml BSA) with 12 different concentrations of [^3H]DHA (Perkin Elmer) between 20 pM and 10 nM. After 1 h incubation with shaking at 230 rpm, membranes were filtered from the binding reactions with a Brandel harvester, washed with binding buffer, and measured for bound [^3H]DHA with a Beckman LS6000 scintillation counter. […] For competition binding, membranes resuspended in 500 μl binding buffer were incubated with 0.5 nM [^3H]DHA plus increasing concentrations of the competing ligand (all compounds were purchased from Sigma). […] Each data point in the curves in FIGS. 2A and S1 represents the mean of three separate experiments, each done in triplicate. Binding data were analyzed by nonlinear regression analysis using Graphpad Prism.

## CC(C)(C)NCC(O)c1ccc(O)c(CO)c1 (centres unmarked) [salbutamol]
β2AR-T4L [1]
  ligand-induced change of bimane fluorescence (in words), β2AR-T4L: larger responses
  λmax ± SD for β2AR-T4L: 449 ± 1 nm
  Intensity at λmax Ligand/Intensity at λmax none, β2AR-T4L: 0.928 ± 0.009

## CNC[C@H](O)c1ccc(O)c(O)c1 [(−)-epinephrine]
[2]
  lowering of affinity by Val114 to alanine mutation: 300 fold

## CCCc1ccccc1OCC(O)CNC(C)C (centres unmarked) [[^3H]DHA, [^3H]-dihydroalprenolol]
wild-type β2AR
  Bmax: 30.0 ± 0.5 pmol/mg
wild-type β2AR; read-out: Kd ± SE
  Kd: 0.161 ± 0.012 nM
β2AR-T4L [3]
  affinity for β2AR-T4L relative to wild-type β2AR (saturation binding): wild-type affinity
β2AR-T4L [3]; saturation binding, β2AR-T4L, Sf9 membranes, read-out: Kd ± SE
  Kd: 0.18 ± 0.016 nM

## CC(C)NC[C@H](O)c1ccc(O)c(O)c1 [(−)-isoproteronol, (−)-isoproterenol]
β2AR-T4L [1]
  ligand-induced change of bimane fluorescence (in words), β2AR-T4L: qualitatively similar decrease in intensity and rightward shift in λmax
  λmax ± SD for β2AR-T4L: 455 ± 2 nm
  Intensity at λmax Ligand/Intensity at λmax none, β2AR-T4L: 0.824 ± 0.006
